Experiments:
[1] = biological target: T1, isolated recombinant JAK1 kinase domain (Homo sapiens, UniProt P23458); test: JAK1 enzyme assay (Caliper LabChip, Ki); format: biochemical; details: recombinant JAK1 kinase domain, 25 μM ATP
T1 construct: The activity of the isolated recombinant JAK1 and JAK2 kinase domain was measured
In short: (§1)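 Values are Ki estimates derived with the Morrison tight-binding equation modified for competition with ATP. Activity of the recombinant kinase domains was measured as peptide phosphorylation on a Caliper LabChip after a 30-minute, 22° C reaction terminated by EDTA.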

[2] = biological target: T2, isolated recombinant JAK2 kinase domain (Homo sapiens, UniProt O60674); test: JAK2 enzyme assay (Caliper LabChip, Ki); format: biochemical; details: 25 μM ATP
T2 construct: The activity of the isolated recombinant JAK1 and JAK2 kinase domain was measured
In short: as §1

[3] = test system: JAK1-dependent STAT6 phosphorylation downstream of IL-13 stimulation in BEAS-2B human bronchial epithelial cells; test: JAK1 pathway assay in BEAS-2B cells (IL-13 stimulated STAT6 phosphorylation, MSD); format: cell-based; details: read-out: P-STAT6 BEAS2B + IL13 IC50
In short: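 BEAS-2B human bronchial epithelial cells, plated the day before in complete growth medium, were preincubated with compound for 1 hr at 37° C (0.2% DMSO final), then stimulated with IL-13 at its EC90 for 15 min. STAT6 phosphorylation in lysates was read by MSD; EC50 was taken as 50% inhibition versus DMSO control.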

T1 sequence (P23458 875-1153 limits assumed): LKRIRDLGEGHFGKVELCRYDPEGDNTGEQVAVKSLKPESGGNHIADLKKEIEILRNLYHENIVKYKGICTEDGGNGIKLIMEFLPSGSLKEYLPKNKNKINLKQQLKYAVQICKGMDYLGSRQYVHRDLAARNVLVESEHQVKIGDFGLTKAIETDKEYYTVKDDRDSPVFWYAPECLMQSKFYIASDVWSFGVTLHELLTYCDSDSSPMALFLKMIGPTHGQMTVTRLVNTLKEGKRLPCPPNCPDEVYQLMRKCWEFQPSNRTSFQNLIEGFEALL
T2 sequence (O60674 849-1124 limits assumed): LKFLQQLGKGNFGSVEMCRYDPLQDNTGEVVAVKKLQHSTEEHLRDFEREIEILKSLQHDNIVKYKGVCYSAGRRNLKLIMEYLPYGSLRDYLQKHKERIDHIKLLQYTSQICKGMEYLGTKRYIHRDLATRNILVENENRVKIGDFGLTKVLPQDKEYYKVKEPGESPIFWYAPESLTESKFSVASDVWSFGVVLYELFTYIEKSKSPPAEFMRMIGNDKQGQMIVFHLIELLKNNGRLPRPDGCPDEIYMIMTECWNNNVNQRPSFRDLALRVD

Ki [1] [nM] | Ki [2] [nM] | SMILES | IC50 [3] [nM]
0.25 | 0.14 | CC(C)Sc1ccc(OC(F)F)c(-c2nn(C)cc2NC(=O)c2cnn3cccnc23)c1 [Example 144, N-[3-[2-(difluoromethoxy)-5-(propan-2-ylsulfanyl)phenyl]-1-methyl-1H-pyrazol-4-yl]pyrazolo[1,5-a]pyrimidine-3-carboxamide] | 5.6
0.6 | 1.6 | CNC(=O)[C@@H]1CCCN1C1CCN(C(=O)Cn2cc(NC(=O)c3cnn4cccnc34)c(-c3cc(SC(C)C)ccc3OC(F)F)n2)CC1 [Example 145, N-[3-[2-(difluoromethoxy)-5-isopropylsulfanyl-phenyl]-1-[2-[4-[(2S)-2-(methylcarbamoyl)pyrrolidin-1-yl]-1-piperidyl]-2-oxo-ethyl]pyrazol-4-yl]pyrazolo[1,5-a]pyrimidine-3-carboxamide] | 100
0.37 | 0.72 | CC(C)Sc1ccc(OC(F)F)c(-c2nn(CC(=O)N3CCC(N4CCn5ccnc5C4)CC3)cc2NC(=O)c2cnn3cccnc23)c1 [Example 146, N-[3-[2-(difluoromethoxy)-5-isopropylsulfanyl-phenyl]-1-[2-[4-(6,8-dihydro-5H-imidazo[1,2-a]pyrazin-7-yl)-1-piperidyl]-2-oxo-ethyl]pyrazol-4-yl]pyrazolo[1,5-a]pyrimidine-3-carboxamide] | 170
0.73 | 1.8 | CC(C)Sc1ccc(OC(F)F)c(-c2nn(CC(=O)N3CCC(N(CCN4CCOCC4)C4COC4)CC3)cc2NC(=O)c2cnn3cccnc23)c1 [Example 147, N-[3-[2-(difluoromethoxy)-5-isopropylsulfanyl-phenyl]-1-[2-[4-[2-morpholinoethyl(oxetan-3-yl)amino]-1-piperidyl]-2-oxo-ethyl]pyrazol-4-yl]pyrazolo[1,5-a]pyrimidine-3-carboxamide] | 1000
0.4 | 0.24 | CC(C)Sc1ccc(OC(F)F)c(-c2nn(Cc3cn(C4CCN(C5COC5)CC4)nn3)cc2NC(=O)c2cnn3cccnc23)c1 [Example 148, N-[3-[2-(difluoromethoxy)-5-isopropylsulfanyl-phenyl]-1-[[1-[1-(oxetan-3-yl)-4-piperidyl]triazol-4-yl]methyl]pyrazol-4-yl]pyrazolo[1,5-a]pyrimidine-3-carboxamide] | 55
0.52 | 1.2 | CC(C)Sc1ccc(OC(F)F)c(-c2nn(CC(=O)N3CCC(N4CCO[C@H](CO)C4)CC3)cc2NC(=O)c2cnn3cccnc23)c1 [Example 149, N-[3-[2-(difluoromethoxy)-5-isopropylsulfanyl-phenyl]-1-[2-[4-[(2S)-2-(hydroxymethyl)morpholin-4-yl]-1-piperidyl]-2-oxo-ethyl]pyrazol-4-yl]pyrazolo[1,5-a]pyrimidine-3-carboxamide] | 50
0.6 | 1.4 | COC(=O)N1CCN(CC2CCN(C(=O)Cn3cc(NC(=O)c4cnn5cccnc45)c(-c4cc(SC(C)C)ccc4OC(F)F)n3)CC2)CC1 [Example 150, methyl 4-[[1-(2-[3-[2-(difluoromethoxy)-5-(propan-2-ylsulfanyl)phenyl]-4-[pyrazolo[1,5-a]pyrimidine-3-amido]-1H-pyrazol-1-yl]acetyl)piperidin-4-yl]methyl]piperazine-1-carboxylate] | 15
0.54 | 2.3 | CC(C)Sc1ccc(OC(F)F)c(-c2nn(CC(=O)N3CCC(C(=O)N4CCNCC4)CC3)cc2NC(=O)c2cnn3cccnc23)c1 [Example 151, N-[3-[2-(difluoromethoxy)-5-isopropylsulfanyl-phenyl]-1-[2-oxo-2-[4-(piperazine-1-carbonyl)-1-piperidyl]ethyl]pyrazol-4-yl]pyrazolo[1,5-a]pyrimidine-3-carboxamide] | 960
0.52 | 1.3 | CC(C)Sc1ccc(OC(F)F)c(-c2nn(CC(=O)N3CCC(N4CCN(CC(=O)N5CCOCC5)CC4)CC3)cc2NC(=O)c2cnn3cccnc23)c1 [Example 152, N-[3-[2-(difluoromethoxy)-5-isopropylsulfanyl-phenyl]-1-[2-[4-[4-(2-morpholino-2-oxo-ethyl)piperazin-1-yl]-1-piperidyl]-2-oxo-ethyl]pyrazol-4-yl]pyrazolo[1,5-a]pyrimidine-3-carboxamide] | 290
0.41 | 0.91 | CC(C)Sc1ccc(OC(F)F)c(-c2nn(CC(=O)N3CCC(N4CCOC[C@H]4CO)CC3)cc2NC(=O)c2cnn3cccnc23)c1 [Example 153] | 110
0.42 | 1.5 | CC(C)Sc1ccc(OC(F)F)c(-c2nn(CC(=O)N3CCC(N(C)CC(=O)N4CCOCC4)CC3)cc2NC(=O)c2cnn3cccnc23)c1 [Example 154, N-[3-[2-(difluoromethoxy)-5-isopropylsulfanyl-phenyl]-1-[2-[4-[methyl-(2-morpholino-2-oxo-ethyl)amino]-1-piperidyl]-2-oxo-ethyl]pyrazol-4-yl]pyrazolo[1,5-a]pyrimidine-3-carboxamide] | 81
0.31 | 0.99 | CC(C)Sc1ccc(OC(F)F)c(-c2nn(CC(=O)N3CCC(N4CCO[C@@H](CO)C4)CC3)cc2NC(=O)c2cnn3cccnc23)c1 [Example 155, N-[3-[2-(difluoromethoxy)-5-isopropylsulfanyl-phenyl]-1-[2-[4-[(2R)-2-(hydroxymethyl)morpholin-4-yl]-1-piperidyl]-2-oxo-ethyl]pyrazol-4-yl]pyrazolo[1,5-a]pyrimidine-3-carboxamide] | 48
0.36 | 0.29 | CC(C)Sc1ccc(OC(F)F)c(-c2nn(Cc3cn(C4CCN(C5CCOC5)CC4)nn3)cc2NC(=O)c2cnn3cccnc23)c1 (stereo not drawn) [Example 156, N-[3-[2-(difluoromethoxy)-5-(propan-2-ylsulfanyl)phenyl]-1-([1-[1-(oxolan-3-yl)piperidin-4-yl]-1H-1,2,3-triazol-4-yl]methyl)-1H-pyrazol-4-yl]pyrazolo[1,5-a]pyrimidine-3-carboxamide] | 21
0.27 | 0.77 | CC(=O)N1CCN(CC2CCN(C(=O)Cn3cc(NC(=O)c4cnn5cccnc45)c(-c4cc(SC(C)C)ccc4OC(F)F)n3)CC2)CC1 [Example 157, N-[1-[2-[4-[(4-acetylpiperazin-1-yl)methyl]-1-piperidyl]-2-oxo-ethyl]-3-[2-(difluoromethoxy)-5-isopropylsulfanyl-phenyl]pyrazol-4-yl]pyrazolo[1,5-a]pyrimidine-3-carboxamide] | 47
0.59 | 1 | CC(C)Sc1ccc(OC(F)F)c(-c2nn(CC(=O)N3CCC(N4CCOC[C@@H]4CO)CC3)cc2NC(=O)c2cnn3cccnc23)c1 [Example 158, N-[3-[2-(difluoromethoxy)-5-isopropylsulfanyl-phenyl]-1-[2-[4-[(3S)-3-(hydroxymethyl)morpholin-4-yl]-1-piperidyl]-2-oxo-ethyl]pyrazol-4-yl]pyrazolo[1,5-a]pyrimidine-3-carboxamide] | 91
0.16 | 0.097 | Cn1cc(NC(=O)c2cnn3cccnc23)c(-c2cc(SC(CF)CF)ccc2OC(F)F)n1 [Example 159, N-[3-[2-(difluoromethoxy)-5-[(1,3-difluoropropan-2-yl)sulfanyl]phenyl]-1-methyl-1H-pyrazol-4-yl]pyrazolo[1,5-a]pyrimidine-3-carboxamide] | 3.9
0.098 | 0.056 | O=C(Nc1c[nH]nc1-c1cc(SC2CC2)ccc1OC(F)F)c1cnn2cccnc12 [Example 160, N-[3-[5-(cyclopropylsulfanyl)-2-(difluoromethoxy)phenyl]-1H-pyrazol-4-yl]pyrazolo[1,5-a]pyrimidine-3-carboxamide] | 7.3
0.3 | 0.64 | O=C(Nc1cn(CC(=O)N2CCC(N3CCOCC3)CC2)nc1-c1cc(SC2CC2)ccc1OC(F)F)c1cnn2cccnc12 [Example 161, N-[3-[5-cyclopropylsulfanyl-2-(difluoromethoxy)phenyl]-1-[2-(4-morpholino-1-piperidyl)-2-oxo-ethyl]pyrazol-4-yl]pyrazolo[1,5-a]pyrimidine-3-carboxamide] | 16
0.42 | 0.98 | O=C(Nc1cn(CC(=O)N2CCC(CN3CCOCC3)CC2)nc1-c1cc(SC2CC2)ccc1OC(F)F)c1cnn2cccnc12 [Example 162, N-[3-[5-cyclopropylsulfanyl-2-(difluoromethoxy)phenyl]-1-[2-[4-(morpholinomethyl)-1-piperidyl]-2-oxo-ethyl]pyrazol-4-yl]pyrazolo[1,5-a]pyrimidine-3-carboxamide] | 15
0.43 | 0.94 | O=C(Nc1cn(CC(=O)N2CCN(CCN3CCOCC3)CC2)nc1-c1cc(SC2CC2)ccc1OC(F)F)c1cnn2cccnc12 [Example 163, N-[3-[5-(cyclopropylsulfanyl)-2-(difluoromethoxy)phenyl]-1-(2-[4-[2-(morpholin-4-yl)ethyl]piperazin-1-yl]-2-oxoethyl)-1H-pyrazol-4-yl]pyrazolo[1,5-a]pyrimidine-3-carboxamide] | 24

Source: patent US20180265515A1 (Genentech, Inc., priority 2015, published 2018)
